The text below walks through data of patent US5164411A, “Pyrethroid compositions” (priority 1991, dated 1992).

Each structure is given as a SMILES string.

This experiment has as its system target crop insects. Briefly: Field trials, overall statement. The experiment is classed as in vivo. The following applies: at half the rate of cypermethrin, or even lower. The source says:
Field trials conducted on cotton in Louisiana, Mississippi, Alabama, and Arizona consisted of a randomized complete block design of four replications per treatment. Plots were a minimum of 0.2 acres, and all applications were by commercial ground equipment with a minimum of 10 gallons total spray solution per acre. The cypermethrin isomer content (weight %) of the several sigma-cypermethrin technical products used in the field trials were as follows:
Analysis of the data was based on a seasonal average of multiple evaluations taken over a four to six week period (3-4 applications) in trials for control of Heliothis sp.
Field trials conducted on lettuce in California for evaluation of the control of cabbage looper consisted of a randomized complete block design of four replications per treatment. Applications were made to small plots with CO2 backpack sprayer using a minimum of 10 gallons per acre. Results were converted to percent control based on untreated check plots.
Field trials were conducted in Louisiana, North Carolina, Texas, Kentucky, Tennessee, and Illinois to evaluate the control of alfalfa weevil (Hypera postica). Small plot trials were used in a randomized block design with four replications per treatment. Applications were made with CO2 backpack sprayers. […]

In the case of `CC1(C)C(C=C(Cl)Cl)C1C(=O)O[C@H](C#N)c1cccc(Oc2ccccc2)c1` (mixture of isomers) [sigma-cypermethrin, (S)(cyano)(3-phenoxyphenyl)methyl cis/trans-3-(2,2-dichloroethenyl)-2,2-dimethylcyclopropanecarboxylate], the “field results relative to cypermethrin” value was “generally gave results essentially equivalent to that obtained with cypermethrin applied at the recommended rate”.
